This note sets out measurements from US10047051B2, “Substituted pyridines and method of use” (AbbVie S.á{acute over (.)}r.l., priority 2015, dated 2018).

SMILES strings stand for the structures. pEC50: −log10 of the molar value.

Common to all, as to type: cell-based
Experiment [1] addresses T1, CFTR G551D mutant (Homo sapiens, UniProt P13569, G551D).
T1 construct: expressed in transfected cells; host or cells: HEK293 cells, reverse transfection with plasmids
The experiment in a line: YFP-halide influx assay for the CFTR-G551D mutation (HEK293 cells). Particulars: forskolin 10.67 μM. In a few lines: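 Channel opening read as I⁻-driven quenching of a YFP H148Q/I152L/F47L reporter over 7 s post-injection, expressed as 1−F/F0 and fitted against concentration for EC50. Cells were HEK293 co-transfected at seeding with G551D CFTR plus reporter, then grown 24 h at 37 °C, 5% CO2.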

The target in experiment [2] is T2, CFTR G551D/ΔF508 (Homo sapiens, UniProt P13569, G551D).
T2 construct: host or cells: primary human bronchial epithelial cells from CF patients heterozygous G551D/ΔF508, no corrector pre-treatment
As to the kind of experiment: TECC assay, primary bronchial epithelial cells, CFTR G551D/ΔF508. Conditions: primary bronchial epithelial cells heterozygous G551D/ΔF508, acute mode, increase in Isc after forskolin. As for the experimental part: (§1) The TECC (Tranepithelial Clamp Circuit, EP-design) assay measures the functionality of the cystic fibrosis Transmembrane Conductance regulator (CFTR) by measuring the short circuit current (Isc) generated over the basolateral and apical membrane of lung epithelial cells. In TECC the transepithelial potential PD and transepithelial resistance (Rt) are measured in an open circuit and transformed to Isc using Ohm's law. 24 Wells can be measured simultaneously allowing a higher throughput compared to Ussing chambers.
(§2) For this purpose, bronchial epithelial cells isolated from CF patients homozygous for the CFTR ΔF508 mutation (hAEC-CF, Epithelix) are plated on type IV collagen-coated Transwell® supports (Costar). Human airway epithelia are generated by provision of an air-liquid interface for 21 days to form well-differentiated polarized cultures that resemble in vivo pseudo-stratified ciliated epithelium (Fulcher, M. L., Gabriel, S., Burns, K. A., Yankaskas, J. R., Randell, S. H., 2005. Well-differentiated human airway epithelial cell cultures. Methods Mol. Med. 107, 183-206). In the case of the homozygous ΔF508 CFTR samples, the differentiated cells are treated with 3 μM VX809 (2626 South Loop West, Suite 225, Houston, Tex. 77054 USA, Cat n# S1565) to allow sufficient expression of properly folded CFTR protein on the membrane (48 hours basolateral treatment and 24 hours apical treatment), prior to electrophysiological recordings. For heterozygous G551D/ΔF508, differentiated cells are used as such for the recordings.
(§3) Information on the compounds can be retrieved on the homozygous ΔF508 CFTR samples looking at increased CFTR activity when compounds are added in an acute mode or in a chronic mode. On G551D/ΔF508 CFTR heterozygous samples compounds are added in an acute mode to the differentiated cells.
(§4) For the acute mode, for electrophysiological recording, the human airway epithelia are mounted in the TECC heating plate for electrophysiological measurement and kept at 37° C. The epithelia are bathed in a NaCl-Ringer solution (120 mM NaCl, 25 mM NaHCO3, 1.2 mM CaCl2, 1.2 mM MgCl2, 0.8 mM KH2PO4, 0.8 mM K2HPO4, pH 7.4, 5 mM glucose) on both the basolateral and apical sides. Apical amiloride is used to inhibit the endogenous ENaC currents while forkolin is applied on both apical and basolateral side to stimulate CFTR. After forskolin triggering, compounds are added on both sides to test their potential for increasing CFTR gating. Measurements are done during a 20 minute timeframe with recordings every 2 minutes. The increase in Isc is used as a measure for the increased CFTR activity, EC50 values can be generated by measuring impact of different concentrations of compound on Isc on primary cells, for this purpose each transwell is treated with a different compound concentration. Inh-172, an inhibitor specific for CFTR, is used to test the specificity of the tested compounds.
When subjected to this protocol, the following values were obtained. The difference between ΔIsc measured as DMSO (baseline), and the ΔIsc measured with the compound tested.

For experiment [3], the target named is T3, CFTR ΔF508 mutant (Homo sapiens, UniProt P13569, DEL508-508).
T3 construct: expressed in transfected cells; host or cells: CFBE41o- cells, adenoviral transduction
As to the kind of experiment: YFP-halide influx assay for the CFTR-ΔF508 mutation (CFBE41o- cells). Particulars: forskolin 10.67 μM; for pEC50: from (1−F/F0) vs concentration plot. In a few lines: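 EC50 derived from plotting 1−F/F0 (fluorescence 36 s after iodide injection over pre-injection value) against compound concentration. Cells: CFBE41o- transduced with ΔF508-CFTR and YFP quench reporter, corrected 24 h at 27° C or by a CFTR modulator at 37° C.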

Experiment [4] has as its target T4, CFTR-G1349D (Homo sapiens, UniProt P13569, G1349D).
T4 construct: expressed in transfected cells
The experiment in a line: YFP-halide influx assay for the CFTR-G1349D. In a few lines: (§5)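 HEK293 cells reverse-transfected with a CFTR mutant and YFP H148Q/I152L/F47L halide sensor, expressed 24 h at 37° C. Fluorescence quenching followed for 7 s after I⁻ injection; activity expressed as 1−F/F0, with EC50 fitted from 1−F/F0 versus compound concentration.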

The target of experiment [5] is T5, CFTR-S549N (Homo sapiens, UniProt P13569, S549N).
T5 construct: expressed in transfected cells
The experiment in a line: YFP-halide influx assay for the CFTR-S549N. Set-up: % Activation: concentration or dose not given beside the values. The method, boiled down:
as §5

Experiment [6] addresses T6, CFTR-R117H (Homo sapiens, UniProt P13569, R117H).
T6 construct: expressed in transfected cells
As to the kind of experiment: YFP-halide influx assay for the CFTR-R117H. The method, boiled down: as §5

Experiment [7] has as its target G551D CFTR (Homo sapiens, UniProt P13569, G551D). The experiment in a line: TECC assay, FRT-CFTR G551D protocol. Conditions: FRT cells stably transfected with G551D CFTR, high expression cells, increase in Isc after forskolin. As for the experimental part:
For G551D recordings, Fischer Rat Thyroid (FRT) cells stably transfected with G551D CFTR (a low CFTR-G551D expressing cell line and a high expressing CFTR-G551D cell line from Rosalind Franklin University of Medicine and Science, North Chicago, Ill.) are plated on Transwell® supports (Costar 6.5 mm diameter, 0.4 μm pore size). The cells are grown for 8-10 days under liquid-liquid interface conditions prior to electrophysiological readings. For electrophysiological recording, the FRT-G551D cells are mounted in the TECC heating plate for electrophysiological measurement and kept at 37° C. The epithelia are bathed in HEPES buffered culturing medium without FBS on both the basolateral and apical sides. Apical amiloride is used to inhibit the endogenous ENaC currents while forkolin is applied on both apical and basolateral side to stimulate CFTR. After forskolin triggering, compounds are added on both sides to test their potential for increasing CFTR gating. Measurements are done during a 10 minute timeframe with recordings every 2 minutes. The increase in Isc is used as a measure for the increased CFTR activity, EC50 values can be generated by measuring impact of different concentrations of compound on Isc on the cells, for this purpose each transwell is treated with a different compound concentration. Inh-172, an inhibitor specific for CFTR, is used to test the specificity of the tested compounds.

Experiment [8] has as its target T7, CFTR-G178R (Homo sapiens, UniProt P13569, G178R).
T7 construct: expressed in transfected cells
The experiment in a line: YFP-halide influx assay for the CFTR-G178R. The method, boiled down:
as §5

Experiment [9] deals with T8, CFTR ΔF508 (Homo sapiens, UniProt P13569, DEL508-508).
T8 construct: host or cells: primary human bronchial epithelial cells from CF patients homozygous for ΔF508, pre-treated with VX809
The experiment in a line: TECC assay, primary bronchial epithelial cells, CFTR ΔF508. Conditions: primary bronchial epithelial cells of CF patients homozygous for CFTR ΔF508, treated with 3 μM VX809, increase in Isc after forskolin. As for the experimental part:
as §1, §2, §3, §4
For the chronic mode, the differentiated cells are treated with 3 μM VX809 (2626 South Loop West, Suite 225, Houston, Tex. 77054 USA, Cat n# S1565) and potentiator compounds at different concentrations (48 hours basolateral treatment and 24 hours apical treatment), prior to electrophysiological recordings. For electrophysiological recording, the human airway epithelia are mounted in the TECC heating plate for electrophysiological measurement and kept at 37° C. The epithelia are bathed in a NaCl-Ringer solution (120 mM NaCl, 25 mM NaHCO3, 1.2 mM CaCl2, 1.2 mM MgCl2, 0.8 mM KH2PO4, 0.8 mM K2HPO4, pH 7.4, 5 mM glucose) on both the basolateral and apical sides. Apical amiloride is used to inhibit the endogenous ENaC currents while forkolin is applied on both apical and basolateral side to stimulate CFTR. Measurements are done during a 20 minute timeframe with recordings every 2 minutes. […]

T6 sequence (P13569 whole entry R117H): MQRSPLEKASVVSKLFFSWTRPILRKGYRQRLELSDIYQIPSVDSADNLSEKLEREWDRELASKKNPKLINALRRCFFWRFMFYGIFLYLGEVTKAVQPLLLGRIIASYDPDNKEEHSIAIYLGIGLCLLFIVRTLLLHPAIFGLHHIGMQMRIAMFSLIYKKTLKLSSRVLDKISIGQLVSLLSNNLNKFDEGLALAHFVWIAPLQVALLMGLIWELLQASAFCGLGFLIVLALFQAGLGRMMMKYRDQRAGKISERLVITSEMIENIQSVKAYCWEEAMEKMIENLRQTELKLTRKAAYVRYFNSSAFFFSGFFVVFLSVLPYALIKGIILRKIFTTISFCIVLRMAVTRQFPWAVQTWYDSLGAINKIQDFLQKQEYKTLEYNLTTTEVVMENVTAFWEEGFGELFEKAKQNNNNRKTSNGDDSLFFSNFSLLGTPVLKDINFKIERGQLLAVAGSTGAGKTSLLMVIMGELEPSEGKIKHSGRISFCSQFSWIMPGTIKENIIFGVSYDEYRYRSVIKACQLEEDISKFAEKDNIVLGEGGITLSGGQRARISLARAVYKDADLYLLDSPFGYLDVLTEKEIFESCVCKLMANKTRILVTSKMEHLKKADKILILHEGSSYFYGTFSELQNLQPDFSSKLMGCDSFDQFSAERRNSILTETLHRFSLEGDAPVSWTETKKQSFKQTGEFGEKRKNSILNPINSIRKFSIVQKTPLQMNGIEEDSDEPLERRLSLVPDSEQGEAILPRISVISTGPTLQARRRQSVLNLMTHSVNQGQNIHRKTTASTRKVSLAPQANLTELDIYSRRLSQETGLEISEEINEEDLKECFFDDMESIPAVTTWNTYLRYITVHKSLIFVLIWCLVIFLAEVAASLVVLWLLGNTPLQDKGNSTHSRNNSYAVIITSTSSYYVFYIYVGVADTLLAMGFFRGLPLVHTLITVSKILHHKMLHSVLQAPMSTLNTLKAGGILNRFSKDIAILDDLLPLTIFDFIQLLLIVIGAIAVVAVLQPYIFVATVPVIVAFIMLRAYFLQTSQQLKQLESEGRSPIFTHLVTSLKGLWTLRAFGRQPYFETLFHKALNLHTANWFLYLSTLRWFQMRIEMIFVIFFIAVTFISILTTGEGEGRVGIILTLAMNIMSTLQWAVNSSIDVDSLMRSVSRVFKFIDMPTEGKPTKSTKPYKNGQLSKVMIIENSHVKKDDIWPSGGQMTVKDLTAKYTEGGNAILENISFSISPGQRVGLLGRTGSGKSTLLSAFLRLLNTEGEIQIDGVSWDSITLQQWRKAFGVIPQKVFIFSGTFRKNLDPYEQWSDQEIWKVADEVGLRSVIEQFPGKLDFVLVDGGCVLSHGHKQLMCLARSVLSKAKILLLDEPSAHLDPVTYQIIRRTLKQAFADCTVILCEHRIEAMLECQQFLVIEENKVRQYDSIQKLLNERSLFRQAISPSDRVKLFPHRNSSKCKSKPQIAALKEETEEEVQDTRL
T4 sequence (P13569 whole entry G1349D): as the sequence (P13569 whole entry R117H) above, with H117R, G1349D counted along it
T7 sequence (P13569 whole entry G178R): as the sequence (P13569 whole entry R117H) above, with H117R, G178R counted along it
T1 sequence (P13569 whole entry G551D): as the sequence (P13569 whole entry R117H) above, with H117R, G551D counted along it
T5 sequence (P13569 whole entry S549N): as the sequence (P13569 whole entry R117H) above, with H117R, S549N counted along it
T2 sequence (P13569 whole entry F508del/G551D): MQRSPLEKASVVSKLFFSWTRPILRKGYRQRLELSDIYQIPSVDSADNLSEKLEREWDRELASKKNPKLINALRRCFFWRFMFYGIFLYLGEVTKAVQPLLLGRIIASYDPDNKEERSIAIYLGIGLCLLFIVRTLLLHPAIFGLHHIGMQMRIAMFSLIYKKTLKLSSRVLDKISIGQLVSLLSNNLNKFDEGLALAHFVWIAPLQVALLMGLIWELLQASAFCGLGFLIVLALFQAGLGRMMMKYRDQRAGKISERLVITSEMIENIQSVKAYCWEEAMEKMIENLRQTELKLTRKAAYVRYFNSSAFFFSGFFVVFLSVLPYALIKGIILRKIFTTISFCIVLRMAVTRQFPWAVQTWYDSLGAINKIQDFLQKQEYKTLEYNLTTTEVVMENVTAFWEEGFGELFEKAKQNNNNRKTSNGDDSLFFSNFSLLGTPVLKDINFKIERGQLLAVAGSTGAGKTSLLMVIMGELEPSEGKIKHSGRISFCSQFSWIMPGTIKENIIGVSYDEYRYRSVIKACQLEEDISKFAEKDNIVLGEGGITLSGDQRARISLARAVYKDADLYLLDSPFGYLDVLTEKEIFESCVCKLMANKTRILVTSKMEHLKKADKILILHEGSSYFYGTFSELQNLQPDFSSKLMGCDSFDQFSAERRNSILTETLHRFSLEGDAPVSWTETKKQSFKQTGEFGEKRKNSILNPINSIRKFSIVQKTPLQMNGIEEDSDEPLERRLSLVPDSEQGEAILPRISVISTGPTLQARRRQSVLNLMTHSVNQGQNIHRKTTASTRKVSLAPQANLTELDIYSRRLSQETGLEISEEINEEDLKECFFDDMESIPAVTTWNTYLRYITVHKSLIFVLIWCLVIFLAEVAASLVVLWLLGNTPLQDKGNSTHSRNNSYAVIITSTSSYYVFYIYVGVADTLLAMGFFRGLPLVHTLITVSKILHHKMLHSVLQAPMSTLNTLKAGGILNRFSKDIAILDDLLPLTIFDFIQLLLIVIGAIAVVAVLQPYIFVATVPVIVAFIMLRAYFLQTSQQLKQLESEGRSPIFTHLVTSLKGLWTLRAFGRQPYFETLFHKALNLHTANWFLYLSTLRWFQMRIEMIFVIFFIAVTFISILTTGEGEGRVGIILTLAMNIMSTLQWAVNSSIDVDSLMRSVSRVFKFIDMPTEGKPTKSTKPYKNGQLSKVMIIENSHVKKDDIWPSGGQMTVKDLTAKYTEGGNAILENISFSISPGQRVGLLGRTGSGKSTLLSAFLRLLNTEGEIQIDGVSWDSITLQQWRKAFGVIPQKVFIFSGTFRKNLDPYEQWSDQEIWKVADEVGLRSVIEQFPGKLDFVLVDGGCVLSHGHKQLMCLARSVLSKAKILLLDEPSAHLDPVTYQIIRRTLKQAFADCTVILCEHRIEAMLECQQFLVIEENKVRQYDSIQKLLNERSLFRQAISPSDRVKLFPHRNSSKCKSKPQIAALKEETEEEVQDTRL
T8 sequence (P13569 with tags, fused parts or gaps DEL508-508): as the sequence (P13569 whole entry F508del/G551D) above, with D550G counted along it
T3 sequence (P13569 with tags, fused parts or gaps DEL508-508): as the sequence (P13569 whole entry F508del/G551D) above, with D550G counted along it
Chain of G551D CFTR (P13569 whole entry G551D): as the sequence (P13569 whole entry R117H) above, with H117R, G551D counted along it

In the case of `Nc1cc(S(=O)(=O)c2ccccc2)cnc1C(=O)NC[C@@H](O)C(F)(F)F` [Compound 253, 3-amino-5-(phenylsulfonyl)-N-[(2R)-3,3,3-trifluoro-2-hydroxypropyl]pyridine-2-carboxamide], the “% Activation” value came to 51.2% in [1] and 102.6% in experiment [3]. Also, the results for the pEC50 in experiment [1], in experiment [2] and in experiment [3] were 5.97, 5.84 and 8.22, respectively.

In the case of `CC(C)(O)CNC(=O)c1ncc(S(=O)(=O)c2ccc(C(F)(F)F)cc2)cc1N` [Compound 11, 3-amino-N-(2-hydroxy-2-methylpropyl)-5-{[4-(trifluoromethyl)phenyl]sulfonyl}pyridine-2-carboxamide], the “% Activation” value in experiment [4] worked out at 90.4%; in experiment [5], 84.1%; in [6], 90.4%; in experiment [1], 75.7%; in experiment [8], 95.3%; in experiment [3], 113.5%. Also, the negative logarithm of the EC50 (pEC50) in experiment [4] was 5.80; in [5], 6.02; in experiment [6], 6.53; in experiment [1], 6.08; in experiment [7], 5.87; in experiment [8], 6.35. The negative-log EC50 (pEC50) in [3] was 7.66.

For `CCOCCOCC(O)CNC(=O)c1ncc(S(=O)(=O)c2ccc(OC(F)(F)F)cc2)cc1N` (centres unmarked) [Compound 38, 3-amino-N-[3-(2-ethoxyethoxy)-2-hydroxypropyl]-5-{[4-(trifluoromethoxy)phenyl]sulfonyl}pyridine-2-carboxamide], the pEC50 was 7.04 in experiment [9], 5.96 in experiment [1] and 7.21 in experiment [3]. In addition, the figures for the “% Activation” value in [1] and in experiment [3] were 86.0% and 103.0%, respectively.

In the case of `COCC(O)CNC(=O)c1ncc(S(=O)(=O)c2ccc(OC(F)(F)F)cc2F)cc1N` (centres unmarked) [Compound 71, 3-amino-5-{[2-fluoro-4-(trifluoromethoxy)phenyl]sulfonyl}-N-(2-hydroxy-3-methoxypropyl)pyridine-2-carboxamide], the pEC50 in [9] was 6.95; in experiment [1], 5.90; in experiment [3], 7.72. Further, the entries for the “% Activation” value in experiment [1] and in [3] were 70.2% and 108.0%, respectively.

As for `CC(C)OC[C@H](O)CNC(=O)c1ncc(S(=O)(=O)c2ccc(C(F)(F)F)cc2)cc1N` [Compound 252, 3-amino-N-[(2R)-2-hydroxy-3-(propan-2-yloxy)propyl]-5-{[4-(trifluoromethyl)phenyl]sulfonyl}pyridine-2-carboxamide], the “% Activation” value in experiment [1] worked out at 99.7%; in experiment [3], 102.0%. Moreover, the pEC50 in experiment [1] was 6.67; in experiment [2], 7.21; in experiment [3], 8.60.

Take `CC1(C)CN(C(=O)c2ncc(S(=O)(=O)c3ccc(OC(F)(F)F)cc3)cc2N)C1` [Compound 59, (3-amino-5-{[4-(trifluoromethoxy)phenyl]sulfonyl}pyridin-2-yl)(3,3-dimethylazetidin-1-yl)methanone]: the pEC50 was 7.30 in [9], 5.79 in experiment [1] and 7.46 in [3]. Moreover, the “% Activation” value in experiment [1] is given as 84.6%; in experiment [3], 111.0%.

As for `CC(O)(CNC(=O)c1ncc(S(=O)(=O)c2ccc(F)cc2)cc1N)C(F)(F)F` (centres unmarked) [Compound 19, 3-amino-5-[(4-fluorophenyl)sulfonyl]-N-(3,3,3-trifluoro-2-hydroxy-2-methylpropyl)pyridine-2-carboxamide], the “% Activation” value in experiment [4] was 84.3%; in experiment [5] it was 79.6%; in experiment [6], 90.8%; in experiment [1], 63.2%; in experiment [8], 89.9%; in experiment [3], 113.3%. For the same compound, the pEC50 was 6.18 in [4]; 5.79 in experiment [5]; 6.73 in experiment [6]; 5.97 in [1]; 5.26 in experiment [7]; 6.25 in [8]. Further, in experiment [3], the pEC50 was 7.79.

`COC[C@H](O)CNC(=O)c1ncc(S(=O)(=O)c2ccc(C(F)(F)F)cc2F)cc1N` [Compound 99, 3-amino-5-{[2-fluoro-4-(trifluoromethyl)phenyl]sulfonyl}-N-[(2R)-2-hydroxy-3-methoxypropyl]pyridine-2-carboxamide]: the “% Activation” value amounted to 91.7% in [1] and 109.5% in experiment [3]. In addition, the negative-log EC50 (pEC50) in [1] is 6.10; in experiment [2] it was 6.45; in [3], 8.12.
